Results published in patent US12391679B2, “Benzamide-substituted bicyclic imidazo- and pyrazolo-fused -pyridine, -pyrimide, and -pyridazine compounds for treatment of inflammatory diseases” (ONCO3R Therapeutics BV, priority 2019, dated 2025).
Blank lines part the entries; values can stand above or below the compound they belong to.

Assays:
SIK1 = target: T1, SIK1 (Homo sapiens, UniProt P57059); assay: ADP-Glo kinase assay, SIK1; assay type: biochemical
T1 construct: purchased Carna Biosciences 02-131
T1 sequence (P57059 whole entry): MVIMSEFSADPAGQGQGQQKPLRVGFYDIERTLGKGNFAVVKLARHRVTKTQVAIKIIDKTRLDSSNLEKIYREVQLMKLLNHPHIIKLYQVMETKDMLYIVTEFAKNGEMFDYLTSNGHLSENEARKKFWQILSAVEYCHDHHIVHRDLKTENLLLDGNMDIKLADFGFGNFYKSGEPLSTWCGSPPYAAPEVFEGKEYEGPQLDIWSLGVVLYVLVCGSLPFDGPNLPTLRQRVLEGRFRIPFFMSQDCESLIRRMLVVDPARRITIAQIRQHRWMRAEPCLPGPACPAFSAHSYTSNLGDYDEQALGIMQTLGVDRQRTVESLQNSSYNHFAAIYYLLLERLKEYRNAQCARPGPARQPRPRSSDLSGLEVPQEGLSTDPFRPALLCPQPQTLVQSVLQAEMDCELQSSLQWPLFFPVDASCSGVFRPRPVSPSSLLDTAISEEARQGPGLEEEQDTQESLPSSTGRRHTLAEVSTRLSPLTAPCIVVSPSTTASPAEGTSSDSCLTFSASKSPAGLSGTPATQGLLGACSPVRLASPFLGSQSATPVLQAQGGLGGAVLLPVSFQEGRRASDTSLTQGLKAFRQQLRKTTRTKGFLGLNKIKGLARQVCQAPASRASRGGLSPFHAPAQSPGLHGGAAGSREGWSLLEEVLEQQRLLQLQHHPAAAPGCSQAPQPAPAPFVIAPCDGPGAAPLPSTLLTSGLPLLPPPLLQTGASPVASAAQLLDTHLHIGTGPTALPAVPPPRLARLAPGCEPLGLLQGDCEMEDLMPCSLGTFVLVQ
How it was run: (§1)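 Kinase reactions ran 120 min at room temperature after ATP addition to enzyme-substrate mix. Remaining ATP was depleted (40 min) and ADP converted to ATP for luciferase detection (30 min), signal rising with activity. Final 1% DMSO and 10 μM staurosporine served as negative and positive controls.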

SIK2 = target: T2, SIK2 (Homo sapiens, UniProt Q9H0K1); assay: ADP-Glo kinase assay, SIK2; assay type: biochemical
T2 construct: purchased ThermoFisher Scientific PV4792
T2 sequence (Q9H0K1 whole entry): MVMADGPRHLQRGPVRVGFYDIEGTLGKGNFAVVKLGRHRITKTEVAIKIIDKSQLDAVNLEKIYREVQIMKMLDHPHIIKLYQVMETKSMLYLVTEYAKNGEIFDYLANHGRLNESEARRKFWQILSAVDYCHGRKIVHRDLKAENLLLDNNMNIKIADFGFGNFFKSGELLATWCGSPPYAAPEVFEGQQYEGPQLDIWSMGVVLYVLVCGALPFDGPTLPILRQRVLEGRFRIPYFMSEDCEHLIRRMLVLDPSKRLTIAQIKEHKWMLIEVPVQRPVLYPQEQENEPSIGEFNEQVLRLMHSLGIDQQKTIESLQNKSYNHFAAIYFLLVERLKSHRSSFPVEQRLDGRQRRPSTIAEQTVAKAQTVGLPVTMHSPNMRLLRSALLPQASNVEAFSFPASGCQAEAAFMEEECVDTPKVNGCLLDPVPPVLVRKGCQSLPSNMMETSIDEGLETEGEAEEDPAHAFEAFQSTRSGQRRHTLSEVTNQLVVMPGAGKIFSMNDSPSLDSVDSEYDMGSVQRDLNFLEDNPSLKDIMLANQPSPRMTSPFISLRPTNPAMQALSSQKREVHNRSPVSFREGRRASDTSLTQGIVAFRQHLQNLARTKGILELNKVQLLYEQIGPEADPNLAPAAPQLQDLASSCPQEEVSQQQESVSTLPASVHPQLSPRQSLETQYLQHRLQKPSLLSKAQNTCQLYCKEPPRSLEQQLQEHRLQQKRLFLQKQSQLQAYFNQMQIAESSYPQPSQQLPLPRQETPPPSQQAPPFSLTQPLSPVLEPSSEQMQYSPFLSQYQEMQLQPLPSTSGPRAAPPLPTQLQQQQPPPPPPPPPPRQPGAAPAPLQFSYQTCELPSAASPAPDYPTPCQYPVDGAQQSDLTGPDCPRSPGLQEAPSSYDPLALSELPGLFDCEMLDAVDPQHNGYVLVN
How it was run: as §1

[1] = test system: LPS-induced TNFα in monocyte-derived macrophages; assay: MdM assay: LPS-triggered TNFα (ELISA); assay type: cell-based, human; settings: Macrophage; human MdM; LPS 200 ng/mL; supernatant after 20 h; inhibition of TNFα; read-out: TNFα EC50
How it was run: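 TNFα secretion quantified by streptavidin-HRP/luminol sandwich ELISA in supernatants collected 20 h after LPS (200 ng/mL). Macrophages derived from magnetically isolated human CD14+ monocytes were used at day 10, with compound added 1 h before LPS; final DMSO 0.2%.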

Structure (SMILES): COc1cc(-c2cnc3cc(C4(O)CCC4)ccn23)cc(OC(F)F)c1C(=O)N[C@@H]1C[C@@H]1F [Cpd 205, 2-(difluoromethoxy)-N-[(1R,2S)-2-fluorocyclopropyl]-4-[7-(1-hydroxycyclobutyl)imidazo[1,2-a]pyridin-3-yl]-6-methoxy-benzamide]
IC50 (SIK1): > 500 nM
IC50 (SIK2): 100 to 500 nM
EC50 [1]: 100 to 1000 nM

Structure (SMILES): COc1cc(-c2cnc3cc(C(C)(O)C4CC4)ccn23)cc(OC(F)F)c1C(=O)NC1CC1 (stereo not drawn) [Cpd 138, N-cyclopropyl-4-[7-(1-cyclopropyl-1-hydroxy-ethyl)imidazo[1,2-a]pyridin-3-yl]-2-(difluoromethoxy)-6-methoxy-benzamide]
IC50 (SIK1): > 500 nM
IC50 (SIK2): > 500 nM
EC50 [1]: 100 to 1000 nM

Structure (SMILES): COc1cc(-c2cnc3cc([C@@](C)(C#N)CO)ccn23)cc(OC(F)F)c1C(=O)NC1CC1 (single isomer, unassigned) [Cpd 189, 4-[7-(1-cyano-2-hydroxy-1-methyl-ethyl)imidazo[1,2-a]pyridin-3-yl]-N-cyclopropyl-2-(difluoromethoxy)-6-methoxy-benzamide]
IC50 (SIK1): > 500 nM
IC50 (SIK2): > 500 nM
EC50 [1]: 1000 to 5000 nM

Structure (SMILES): COc1cc(-c2cnc3cc(C(C)(C)C#N)ccn23)cc(OC(F)F)c1C(=O)NCC(F)F [Cpd 70, 4-[7-(1-cyano-1-methyl-ethyl)imidazo[1,2-a]pyridin-3-yl]-N-(2,2-difluoroethyl)-2-(difluoromethoxy)-6-methoxy-benzamide]
IC50 (SIK1): > 500 nM
IC50 (SIK2): > 500 nM
EC50 [1]: 100 to 1000 nM

Structure (SMILES): CCC(C)(C#N)c1ccn2c(-c3cc(OC)c(C(=O)NC4CC4)c(OC(F)F)c3)cnc2c1 (stereo not drawn) [Cpd 27, 4-[7-(1-cyano-1-methyl-propyl)imidazo[1,2-a]pyridin-3-yl]-N-cyclopropyl-2-(difluoromethoxy)-6-methoxy-benzamide]
IC50 (SIK1): > 500 nM
IC50 (SIK2): > 500 nM
EC50 [1]: 100 to 1000 nM

Structure (SMILES): COc1cc(-c2cnn3cc(C4CCOCC4)cnc23)cc(OC(F)F)c1C(=O)NC1CC1 [Cpd 95, N-cyclopropyl-2-(difluoromethoxy)-6-methoxy-4-(6-tetrahydropyran-4-ylpyrazolo[1,5-a]pyrimidin-3-yl)benzamide]
IC50 (SIK1): > 500 nM
IC50 (SIK2): 100 to 500 nM
EC50 [1]: 1000 to 5000 nM

Next, values leading:

IC50 (SIK1): > 500 nM
IC50 (SIK2): > 500 nM
EC50 [1]: 100 to 1000 nM
Structure (SMILES): COc1cc(-c2cnc3cc(C(C)(C)O)ccn23)cc(OC(F)F)c1C(=O)NC1CC1 [Cpd 35, N-cyclopropyl-2-(difluoromethoxy)-4-[7-(1-hydroxy-1-methyl-ethyl)imidazo[1,2-a]pyridin-3-yl]-6-methoxy-benzamide]

IC50 (SIK1): > 500 nM
IC50 (SIK2): > 500 nM
EC50 [1]: 100 to 1000 nM
Structure (SMILES): CCC(C)(O)c1ccn2c(-c3cc(OC)c(C(=O)NC4CC4)c(OC(F)F)c3)cnc2c1 (stereo not drawn) [Cpd 137, N-cyclopropyl-2-(difluoromethoxy)-4-[7-(1-hydroxy-1-methyl-propyl)imidazo[1,2-a]pyridin-3-yl]-6-methoxy-benzamide]

IC50 (SIK1): > 500 nM
IC50 (SIK2): > 500 nM
EC50 [1]: 100 to 1000 nM
Structure (SMILES): COc1cc(-c2cnn3cc(C(C)(C)CO)ccc23)cc(OC(F)F)c1C(=O)NC1CC1 [Cpd 236, N-cyclopropyl-2-(difluoromethoxy)-4-[6-(2-hydroxy-1,1-dimethyl-ethyl)pyrazolo[1,5-a]pyridin-3-yl]-6-methoxy-benzamide]

IC50 (SIK1): > 500 nM
IC50 (SIK2): > 500 nM
EC50 [1]: 1000 to 5000 nM
Structure (SMILES): COc1cc(-c2cnc3cc(C(C)(C)CN)ccn23)cc(OC(F)F)c1C(=O)NC1CC1 [Cpd 93, 4-[7-(2-amino-1,1-dimethyl-ethyl)imidazo[1,2-a]pyridin-3-yl]-N-cyclopropyl-2-(difluoromethoxy)-6-methoxy-benzamide]

IC50 (SIK1): > 500 nM
IC50 (SIK2): 100 to 500 nM
EC50 [1]: 100 to 1000 nM
Structure (SMILES): COc1cc(-c2cnn3cc(C4COCCO4)ccc23)cc(OC(F)F)c1C(=O)NC1CC1 (stereo not drawn) [Cpd 232, N-cyclopropyl-2-(difluoromethoxy)-4-[6-(1,4-dioxan-2-yl)pyrazolo[1,5-a]pyridin-3-yl]-6-methoxy-benzamide]
